Like-named read-outs stand apart in the source and are kept apart here.
Legend:
[1] = test system: Cabbage Looper (Trichoplusia ni, TRIPNI); test: Bioassays on Cabbage Looper (CL), 128-well diet tray assay; format: in vivo; details: Trichoplusia ni
Outline: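 One to five second-instar larvae per well on artificial diet surface-treated with 50 μg/cm^2 test molecule (applied in 90:10 acetone-water, dried). Held 5–7 days at 25° C, 14:10 light-dark; percent mortality recorded per well and averaged over eight wells.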

[2] = test system: Beet Armyworm (Spodoptera exigua, LAPHEG); test: Bioassays on Beet Armyworm (BAW), 128-well diet tray assay; format: in vivo; details: Spodoptera exigua
Outline: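 Percent larval mortality, averaged across eight wells, scored after five to seven days at 25° C. under 14:10 light-dark. Each well held one to five second instars feeding on diet dosed at 50 μg/cm^2 with compound from 90:10 acetone-water, solvent dried off.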

[3] = Cabbage Looper, rating class, read-out: CL
[4] = Beet Armyworm, rating class, read-out: BAW
[5] = Cabbage Looper, Table ABC / ABC-DP rating, read-out: CL rating
[6] = Beet Armyworm, Table ABC / ABC-DP rating, read-out: BAW rating
[7] = Table ABC: Biological Results, species CL, read-out: CL
[8] = Table ABC: Biological Results, species BAW, read-out: BAW

Compound | pest or weed control at 50 µg/cm2 [1, 3] [%] | pest or weed control at 50 µg/cm2 [2, 4] [%] | pest or weed control at 50 µg/cm2 [1, 7] [%] | pest or weed control at 50 µg/cm2 [2, 8] [%] | other results
O=C(Nc1cc(NC(=O)C(F)(F)C(F)F)c(F)cc1F)c1cc(NC(=O)[C@H]2[C@H](c3ccc(Cl)c(Cl)c3)C2(Cl)Cl)ccc1Cl [F1565, 2-Chloro-5-((1R,3R)-2,2-dichloro-3-(3,4-dichlorophenyl)cyclopropane-1-carboxamido)-N-(2,4-difluoro-5-(2,2,3,3-tetrafluoropropanamido)phenyl)benzamide] | 50 to 100 | 50 to 100 |  |  | 
Cc1cc(NC(=O)[C@H]2[C@H](c3ccc(F)c(C(F)(F)F)c3)C2(Cl)Cl)cc(C(=O)Nc2ccc(F)c(NC(=O)C(F)F)c2F)c1Cl [F1494, 2-Chloro-5-((1R,3R)-2,2-dichloro-3-(4-fluoro-3-(trifluoromethyl)phenyl)cyclopropane-1-carboxamido)-N-(3-(2,2-difluoroacetamido)-2,4-difluorophenyl)-3-methylbenzamide] | 50 to 100 | 50 to 100 |  |  | 
O=C(CCC(F)(F)C(F)(F)F)Nc1c(F)ccc(NC(=O)c2cc(NC(=O)[C@H]3[C@H](c4ccc(F)c(Cl)c4)C3(Cl)Cl)ccc2Cl)c1F [F1865, 2-Chloro-5-((1R,3R)-2,2-dichloro-3-(3-chloro-4-fluorophenyl)cyclopropane-1-carboxamido)-N-(2,4-difluoro-3-(4,4,5,5,5-pentafluoropentanamido)phenyl) benzamide] |  |  |  |  | pest or weed control at 50 µg/cm2 [1, 5]: 50 to 100%; pest or weed control at 50 µg/cm2 [2, 6]: 50 to 100%
Nc1c(F)ccc(NC(=O)c2cc(NC(=O)[C@H]3[C@H](c4ccc(F)c(I)c4)C3(Cl)Cl)ccc2Cl)c1F (relative stereo) [F1622, trans-N-(3-Amino-2,4-difluorophenyl)-2-chloro-5-(2,2-dichloro-3-(4-fluoro-3-iodophenyl)cyclopropane-1-carboxamido)benzamide] | 50 to 100 | 50 to 100 |  |  | 
O=C(Nc1c(F)ccc(NC(=O)C(F)(F)F)c1F)c1cc(NC(=O)[C@H]2[C@H](c3ccc(F)c(C(F)(F)F)c3)C2(Cl)Cl)cc(F)c1Cl [F1346, 2-Chloro-5-((1R,3R)-2,2-dichloro-3-(4-fluoro-3-(trifluoromethyl)phenyl)cyclopropane-1-carboxamido)-N-(2,6-difluoro-3-(2,2,2-trifluoroacetamido)phenyl)-3-fluorobenzamide] |  |  | 50 to 100 | 50 to 100 | 
O=C(Nc1ccc(F)c(NC(=O)C(F)(F)F)c1F)c1cc(NC(=O)[C@H]2[C@H](c3cc(Cl)c(Cl)c(Cl)c3)C2(Cl)Cl)ccc1Cl [F1533, 2-Chloro-5-((1R,3R)-2,2-dichloro-3-(3,4,5-trichlorophenyl)cyclopropane-1-carboxamido)-N-(2,4-difluoro-3-(2,2,2-trifluoroacetamido)phenyl)benzamide] | 50 to 100 | 50 to 100 |  |  | 
O=C(NCC(F)(F)F)c1cc(NC(=O)[C@H]2[C@H](c3ccc(F)c(C(F)(F)F)c3)C2(Cl)Cl)c(F)cc1Cl [F2084, 2-Chloro-5-((1R,3R)-2,2-dichloro-3-(4-fluoro-3-(trifluoromethyl)phenyl)cyclopropane-1-carboxamido)-4-fluoro-N-(2,2,2-trifluoroethyl)benzamide] |  |  |  |  | pest or weed control at 50 µg/cm2 [1, 5]: 50 to 100%; pest or weed control at 50 µg/cm2 [2, 6]: 50 to 100%
CC(OC(F)F)C(=O)Nc1c(F)ccc(NC(=O)c2cc(NC(=O)[C@H]3[C@H](c4ccc(F)c(C(F)(F)F)c4)C3(Cl)Cl)ccc2Cl)c1F (stereo partly drawn) [F1828, 2-Chloro-5-((1R,3R)-2,2-dichloro-3-(4-fluoro-3-(trifluoromethyl)phenyl)cyclopropane-1-carboxamido)-N-(3-(2-(difluoromethoxy)propanamido)-2,4-difluorophenyl)benzamide] |  |  |  |  | pest or weed control at 50 µg/cm2 [1, 5]: 50 to 100%; pest or weed control at 50 µg/cm2 [2, 6]: 50 to 100%
CC(C)(C)OC(=O)N(C(=O)OC(C)(C)C)c1c(F)ccc(NC(=O)c2cc(NC(=O)[C@H]3[C@H](c4ccc(F)c(Cl)c4)C3(Cl)Cl)cc(F)c2F)c1F (relative stereo) [F1211, trans-tert-Butyl-N-tert-butoxycarbonyl-N-[3-[[5-[[2,2-dichloro-3-(3-chloro-4-fluorophenyl)cyclopropanecarbonyl]amino]-2,3-difluorobenzoyl]amino]-2,6-difluorophenyl]carbamate] |  |  | 50 to 100 | 50 to 100 | 
Nc1cc(F)c(F)cc1NC(=O)c1cc(NC(=O)[C@H]2[C@H](c3ccc(F)c(Cl)c3)C2(Cl)Cl)ccc1Cl [F1134, N-(2-Amino-4,5-difluorophenyl)-2-chloro-5-((1R,3R)-2,2-dichloro-3-(3-chloro-4-fluorophenyl)cyclopropane-1-carboxamido)benzamide] |  |  | 50 to 100 | 50 to 100 | 
O=C(Nc1ccc(F)cc1)c1cc(NC(=O)[C@H]2[C@H](c3ccc(F)c(Cl)c3)C2(Cl)Cl)cc(Cl)c1F (relative stereo) [F1195, trans-3-Chloro-5-(2,2-dichloro-3-(3-chloro-4-fluorophenyl)cyclopropane-1-carboxamido)-2-fluoro-N-(4-fluorophenyl)benzamide] |  |  | 50 to 100 | 50 to 100 | 
O=C(Nc1cc(F)c(NC(=O)C(F)(F)F)c(F)c1)c1cc(NC(=O)[C@H]2[C@H](c3ccc(Cl)c(Cl)c3)C2(Cl)Cl)ccc1Cl (relative stereo) [F1120, trans-2-Chloro-5-(2,2-dichloro-3-(3,4-dichlorophenyl)cyclopropane-1-carboxamido)-N-(3,5-difluoro-4-(2,2,2-trifluoroacetamido)phenyl)benzamide] |  |  | 50 to 100 | 50 to 100 | 
Nc1ccc(F)c(NC(=O)c2cc(NC(=O)[C@H]3[C@H](c4ccc(F)c(C(F)(F)F)c4)C3(Cl)Cl)cc(F)c2Cl)c1F [F1339, N-(3-Amino-2,6-difluorophenyl)-2-chloro-5-((1R,3R)-2,2-dichloro-3-(4-fluoro-3-(trifluoromethyl)phenyl)cyclopropane-1-carboxamido)-3-fluorobenzamide] |  |  | 50 to 100 | 50 to 100 | 
O=C(Nc1cc(F)c(NC(=O)C(Cl)(Cl)Cl)c(F)c1)c1cc(NC(=O)[C@H]2[C@H](c3ccc(Cl)c(Cl)c3)C2(Cl)Cl)ccc1Cl (relative stereo) [F1146, trans-2-Chloro-5-(2,2-dichloro-3-(3,4-dichlorophenyl)cyclopropane-1-carboxamido)-N-(3,5-difluoro-4-(2,2,2-trichloroacetamido)phenyl)benzamide] |  |  | 50 to 100 | 50 to 100 | 
O=C(NCC(F)(F)C(F)(F)F)c1cc(NC(=O)[C@H]2[C@H](c3ccc(F)c(Cl)c3)C2(Cl)Cl)cc(F)c1F (relative stereo) [F2050, trans-5-(2,2-Dichloro-3-(3-chloro-4-fluorophenyl)cyclopropane-1-carboxamido)-2,3-difluoro-N-(2,2,3,3,3-pentafluoropropyl)benzamide] |  |  |  |  | pest or weed control at 50 µg/cm2 [1, 5]: 50 to 100%; pest or weed control at 50 µg/cm2 [2, 6]: 50 to 100%
C#CCCC(=O)Nc1c(F)ccc(NC(=O)c2cc(NC(=O)[C@H]3[C@H](c4ccc(F)c(C(F)(F)F)c4)C3(Cl)Cl)ccc2Cl)c1F [F1855] |  |  |  |  | pest or weed control at 50 µg/cm2 [1, 5]: 50 to 100%; pest or weed control at 50 µg/cm2 [2, 6]: 50 to 100%
O=C(Nc1ccc(F)c(NC(=O)C2CCCO2)c1F)c1cc(NC(=O)[C@H]2[C@H](c3ccc(Cl)c(Cl)c3)C2(Cl)Cl)ccc1Cl (stereo partly drawn) [F1611, N-(3-(2-Chloro-5-((1R,3R)-2,2-dichloro-3-(3,4-dichlorophenyl)cyclopropane-1-carboxamido)benzamido)-2,6-difluorophenyl)tetrahydrofuran-2-carboxamide] | 50 to 100 | 50 to 100 |  |  | 
CCO[C@@H](C)C(=O)Nc1c(F)ccc(NC(=O)c2cc(NC(=O)[C@H]3[C@H](c4ccc(F)c(C(F)(F)F)c4)C3(Cl)Cl)ccc2Cl)c1F [F1731, 2-Chloro-5-((1R,3R)-2,2-dichloro-3-(4-fluoro-3-(trifluoromethyl)phenyl)cyclopropane-1-carboxamido)-N-(3-((S)-2-ethoxypropanamido)-2,4-difluorophenyl)benzamide] | 50 to 100 | 50 to 100 |  |  | 
O=C(Nc1ccc(F)c(NC(=O)C(F)(F)C(F)C(F)(F)F)c1F)c1cc(NC(=O)[C@H]2[C@H](c3ccc(F)c(C(F)(F)F)c3)C2(Cl)Cl)ccc1Cl (stereo partly drawn) [F1839, 2-Chloro-5-((1R,3R)-2,2-dichloro-3-(4-fluoro-3-(trifluoromethyl)phenyl)cyclopropane-1-carboxamido)-N-(2,4-difluoro-3-(2,2,3,4,4,4-hexafluorobutanamido)phenyl)benzamide] |  |  |  |  | pest or weed control at 50 µg/cm2 [1, 5]: 50 to 100%; pest or weed control at 50 µg/cm2 [2, 6]: 50 to 100%
COc1c(F)ccc(NC(=O)c2cc(NC(=O)[C@H]3[C@H](c4cc(Cl)cc(Cl)c4)C3(Cl)Cl)ccc2Cl)c1F (relative stereo) [F1171, trans-2-chloro-5-(2,2-dichloro-3-(3,5-dichlorophenyl)cyclopropane-1-carboxamido)-N-(2,4-difluoro-3-methoxyphenyl)benzamide] |  |  | 50 to 100 | 50 to 100 | 
Nc1cc(NC(=O)c2cc(NC(=O)[C@H]3[C@H](c4cc(Cl)c(Cl)c(Cl)c4)C3(Cl)Cl)cc(F)c2Cl)c(F)cc1F [F1397, N-(5-Amino-2,4-difluorophenyl)-2-chloro-5-((1R,3R)-2,2-dichloro-3-(3,4,5-trichlorophenyl)cyclopropane-1-carboxamido)-3-fluorobenzamide] | 50 to 100 | 50 to 100 |  |  | 

Source: US20250228239A1, “MOLECULES HAVING PESTICIDAL UTILITY, AND INTERMEDIATES, COMPOSITIONS, AND PROCESSES, RELATED THERETO” (priority 2024, published 2025)
